Measurements reported in patent publication US20070004803A1, “Compounds and methods for use in treating neoplasia and cancer based upon inhibitors of isoprenylcysteine methyltransferase” (Purdue Research Foundation, priority 2003, published 2007).
pIC50, pKi: −log10 of the molar value.

Assays:
[1] = biological target: T1, Saccharomyces cerevisiae Icmt (Saccharomyces cerevisiae, UniProt P32584); test: In vitro vapor diffusion methyltransferase assay, AFC analogues as substrates; assay type: biochemical; conditions: Relative velocity (compared to AFC) at 125 μM; substrate ability
T1 construct: A 734 bp EagI-SacII fragment, which contained the gene STE14, was amplified from pSM187; made in house; host or cells: Saccharomyces cerevisiae strain CH2704 (plasmid pCHH10m3N-STE14 in the Ste14p-lacking strain SM1188); membrane fraction
T1 sequence (P32584 1-239): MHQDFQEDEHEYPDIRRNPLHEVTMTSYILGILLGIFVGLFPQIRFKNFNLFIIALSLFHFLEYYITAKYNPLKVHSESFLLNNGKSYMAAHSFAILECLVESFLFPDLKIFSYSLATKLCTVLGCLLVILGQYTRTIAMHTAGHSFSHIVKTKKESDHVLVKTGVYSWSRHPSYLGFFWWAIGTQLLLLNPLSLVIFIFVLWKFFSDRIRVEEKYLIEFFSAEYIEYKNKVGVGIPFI
Procedure: Previous studies in this laboratory have focused on the isoprenoid substrate specificity of FTase. […] These isoprenoid moieties were chosen in part because the corresponding FPP analogues are alternative substrates for FTase, and can thus be readily incorporated into peptides and proteins. The assays were performed using overexpressed, reconstituted recombinant Saccharomyces cerevisiae Icmt.
(§1) Isolation of Membrane Fraction from Yeast Cells—Mid-log phase yeast cells (2.0-3.0 OD600/mL), grown in SC-URA, media, were harvested by centrifugation at 3500×g for 10 minutes at 4° C., washed with 10 mM NaN3, and resuspended in lysis buffer (0.3 M sorbitol, 10 mM Tris-HCl pH 7.5, 0.1 M NaCl, 5 mM MgCl2, 1% aprotinin, 10 μg/mL leupeptin, 10 μg/in L pepstatin A, 10 μg/mL chymostatin, 10 μg/mL bestatin, 1 mM dithiothreitol, and 2 mM AEBSF) to a final concentration of 800 OD600/mL. After a 15 min incubation on ice, the cells were frozen and thawed twice in liquid N2. The cells were then lysed by passing the mixture twice through a French press. The resultant mixture was centrifuged at 500×g to remove whole cells and other particulate. The supernatant was then treated with 50 U/mL micrococcal nuclease followed by centrifugation at 150,000×g in a Beckman L5 50B centrifuge (45 Ti rotor) for 90 minutes at 4° C., to pellet the membrane fraction. The pellet was resuspended in lysis buffer containing 10% glycerol, aliquoted, and stored at −80° C. Membrane protein concentration was determined using Coomassie Plus Protein Assay Reagent (Pierce Biotechnology) according to the manufacturers instructions, and compared to a BSA standard curve prepared by the same procedure. Protein samples were analyzed by immunoblot analysis and in vitro vapor diffusion methyltransferase assay as described elsewhere.
(§2) In vitro vapor diffusion methyltransferase assay—Methyltrasferase assays were performed in a total volume of 60 μL and a final Tris-HCl concentration of 100 mM, pH 7.5. All reactions contained 20 μM S-adenosyl-[^14C-methyl]-methionine (SAM) and 5 μg of membrane protein from the His-Ste14p overexpressing strain CH2704. Substrate curves were generated by varying the amount of compound in each reaction. […] The 60 μL reactions were incubated at 30° C. for 30 minutes. The reaction was stopped with the addition of 50 μL of 1M NaOH/1% SDS. 100 μL of this mixture is then spotted on folded filter paper (5.5 cm×1.5 cm) and lodged in the neck of a scintillation vial containing 10 mL of scintillation fluid. Hydroxide ion forms a tetrahedral intermediate with the newly formed ^14C-methyl ester on the methyl acceptor. This intermediate then eliminates ^14C-methanol, which diffuses into the scintillation fluid below. The filters were pulled out after 2-3 hours, the vials were shaken well and counted in a liquid scintillation analyzer.

[2] = biological target: T1, Saccharomyces cerevisiae Icmt; test: In vitro vapor diffusion methyltransferase assay, inhibition of AFC methylation; assay type: biochemical; conditions: for Icmt inhibitory ability (in words): inhibition of AFC methylation; for pIC50: inhibition curves in the presence of 33 μM AFC
Procedure: Previous studies in this laboratory have focused on the isoprenoid substrate specificity of FTase. We have discovered analogues that are effective alternative substrates, and compounds that are potent inhibitors. […] In the initial study, six isoprenoid-modified analogues (2-7, Chart 1, below) of the minimal Icmt substrate AFC 1 were prepared and evaluated as substrates and as inhibitors of the enzyme. These isoprenoid moieties were chosen in part because the corresponding FPP analogues are alternative substrates for FTase, and can thus be readily incorporated into peptides and proteins. The assays were performed using overexpressed, reconstituted recombinant Saccharomyces cerevisiae Icmt.
as §1
as §2, with “reaction. Inhibition curves were generated by varying the amount of compound in each reaction while in the presence of 33 μM N-acetyl-S-farneslylcysteine (AFC).” for “reaction.”

Icmt krel [1]	SMILES	further results
100	CC(=O)N[C@@H](CSCC=C(C)CCC=C(C)CCC=C(C)C)C(=O)O [Compound 1, N-acetyl-S-farneslylcysteine, reference compound]	–
62.0	CC(=O)N[C@@H](CSC/C=C(/C)CC/C=C(\C)CCC=C(C)C)C(=O)O [Compound 4, N-Acetyl-S-(3,7,11-trimethyldodeca-2(Z),6(E),10-trien-1-yl)-L-cysteine]	–
19.1	CC(=O)N[C@@H](CSC/C=C(\C)CC/C=C(/C)CCC=C(C)C)C(=O)O [Compound 5, N-Acetyl-S-(3,7,11-trimethyldodeca-2(E),6(Z),10-trien-1-yl)-L-cysteine]	–
18.6	C=CCC(=CCSC[C@H](NC(C)=O)C(=O)O)CCC=C(C)CCC=C(C)C [Compound 8, N-Acetyl-S-(3-allyl-7,11-dimethyldodeca-2,6,10-triene-1-yl)-L-cysteine]	–
35.0	CC(=O)N[C@@H](CSC/C=C(\C)CC/C=C(\CC=C(C)C)CCC=C(C)C)C(=O)O [Compound 10, N-Acetyl-S-(7-(3-methylbut-2-enyl)-3,11-dimethyldodeca-2Z,6E,10-trien-1-yl) -L-cysteine]	–

The remaining lines, values behind:

SMILES	Icmt krel [1]	further results
CC(=O)N[C@@H](CSC/C=C(\CC=C(C)C)CC/C=C(\C)CCC=C(C)C)C(=O)O [Compound 3, N-Acetyl-S-(3-(3-methylbut-2-enyl)-7,11-dimethyldodeca-2(Z),6(E),10-trien-1-yl)-L-cysteine]	5.9	pKi ([2]; AFC(protein)-competitive inhibition of Icmt): 4.67; Icmt inhibitory ability (in words) [2]: low micromolar inhibitor of AFC methylation; mode of action ([2]; varying AFC at constant inhibitor concentration): AFC(protein)—competitive inhibitor of Icmt
CCCCCCCCCC/C(C)=C/CSC[C@H](NC(C)=O)C(=O)O [Compound 6]	24.2	–
C=CCC/C(=C\CSC[C@H](NC(C)=O)C(=O)O)CC/C=C(\C)CCC=C(C)C [Compound 9, N-Acetyl-S-(3-(but-3-enyl)-7,11-dimethyldodeca-2Z,6E,10-trien-1-yl)-L-cysteine]	35.4	–
CC(=O)N[C@@H](CSC/C=C(\CC=C(C)C)CC/C=C(\C)CC/C=C(\C)CCC=C(C)C)C(=O)O [Compound 12, N-Acetyl-S-(3-(3-methylbut-2-enyl) 7,11,15-trimethylhexadeca-2Z,6E,10E,14-tetraen-1-yl)-L-cysteine]	50.0	pIC50 [2]: 3.89
CC(=O)N[C@@H](CSC/C=C(\C)CC/C=C(\CC=C(C)C)CC/C=C(\C)CCC=C(C)C)C(=O)O [Compound 13, N-Acetyl-S-(7-(3-methylbut-2-enyl) 3,11,15-trimethylhexadeca-2Z,6E,10E,14-tetraen-1-yl)-L-cysteine]	16.3	pIC50 [2]: 3.89
CC(=O)N[C@@H](CSC/C=C(\CC=C(C)C)CCc1ccc(-c2ccccc2)cc1)C(=O)O [Compound 14]	0.70	Icmt inhibitory ability (in words) [2]: moderately effective inhibitor of Icmt
